# From paper PMC5218480 (PLoS ONE, 2017)
# Tested on: MV-4-11 cells
# Assay: Gene expression microarray analysis (Affymetrix PrimeView) and GSEA
# Assay type: cell-based, human
# Set-up: RFU PODN (11730768_x_at) / Fold change /veh PODN (11730768_x_at) / RFU LINC00158 (11744669_a_at) / Fold change /veh LINC00158 (11744669_a_at) / RFU DUSP10 (11751237_a_at) / Fold change /veh DUSP10 (11751237_a_at) / RFU ID3 (11757404_x_at) / Fold change /veh ID3 (11757404_x_at) / RFU PLEKHG5 (11737974_s_at) / Fold change /veh PLEKHG5 (11737974_s_at) / RFU LRRC4B (11730491_at) / Fold change /veh LRRC4B (11730491_at) / RFU GIMAP4 (11747438_a_at) / Fold change /veh GIMAP4 (11747438_a_at) / RFU KRT8 (11758183_x_at) / Fold change /veh KRT8 (11758183_x_at) / RFU CNN1 (11734310_a_at) / Fold change /veh CNN1 (11734310_a_at) / RFU VPS37D (11726825_at) / Fold change /veh VPS37D (11726825_at) / RFU C10orf10 (11716522_x_at) / Fold change /veh C10orf10 (11716522_x_at) / RFU KIR2DL2 /// KIR2DL4 /// KIR2DL5A /// KIR2DL5B /// KIR2DS1 /// KIR2DS2 /// KIR2DS3 /// KIR2DS4 /// KIR3DL3 /// KIR3DL3 /// KIR3DS1 (11738374_at) / Fold change /veh KIR2DL2 /// KIR2DL4 /// KIR2DL5A /// KIR2DL5B /// KIR2DS1 /// KIR2DS2 /// KIR2DS3 /// KIR2DS4 /// KIR3DL3 /// KIR3DL3 /// KIR3DS1 (11738374_at) / RFU C1QL1 (11718748_at) / Fold change /veh C1QL1 (11718748_at) / RFU TMPRSS4 (11747572_a_at) / Fold change /veh TMPRSS4 (11747572_a_at) / RFU HAMP (11756126_x_at) / Fold change /veh HAMP (11756126_x_at) / RFU RNFT2 (11725882_a_at) / Fold change /veh RNFT2 (11725882_a_at) / RFU NR4A2 (11747474_a_at) / Fold change /veh NR4A2 (11747474_a_at) / RFU ABCC12 (11746883_a_at) / Fold change /veh ABCC12 (11746883_a_at) / RFU TMEM136 (11760407_x_at) / Fold change /veh TMEM136 (11760407_x_at) / RFU CLDN22 /// WWC2 (11732394_at) / Fold change /veh CLDN22 /// WWC2 (11732394_at) / RFU HLA-DPB1 (11760878_x_at) / Fold change /veh HLA-DPB1 (11760878_x_at) / RFU SPINT1 (11716480_a_at) / Fold change /veh SPINT1 (11716480_a_at) / RFU GAP43 (11754022_s_at) / Fold change /veh GAP43 (11754022_s_at) / RFU A4GNT (11735810_at) / Fold change /veh A4GNT (11735810_at) / RFU PRB3 (11715151_x_at) / Fold change /veh PRB3 (11715151_x_at) / RFU TUBB4B (11761932_at) / Fold change /veh TUBB4B (11761932_at) / RFU CAPN14 (11732068_a_at) / Fold change /veh CAPN14 (11732068_a_at) / RFU TMCC2 (11721928_a_at) / Fold change /veh TMCC2 (11721928_a_at) / RFU IRGQ (11745062_a_at) / Fold change /veh IRGQ (11745062_a_at) / RFU FAM174B (11720279_a_at) / Fold change /veh FAM174B (11720279_a_at) / RFU TMPRSS4 (11748680_a_at) / Fold change /veh TMPRSS4 (11748680_a_at) / RFU FAM212B (11763350_a_at) / Fold change /veh FAM212B (11763350_a_at) / RFU PLEKHG5 (11743358_a_at) / Fold change /veh PLEKHG5 (11743358_a_at) / RFU ZSCAN30 (11745921_a_at) / Fold change /veh ZSCAN30 (11745921_a_at) / RFU CMKLR1 (11741424_a_at) / Fold change /veh CMKLR1 (11741424_a_at) / RFU LOC101060620 /// MAPK8IP1 (11723275_at) / Fold change /veh LOC101060620 /// MAPK8IP1 (11723275_at) / RFU SPTSSB (11747773_x_at) / Fold change /veh SPTSSB (11747773_x_at) / RFU PRSS12 (11739890_at) / Fold change /veh PRSS12 (11739890_at) / RFU BIN1 (11741810_x_at) / Fold change /veh BIN1 (11741810_x_at) / RFU WNT11 (11732464_a_at) / Fold change /veh WNT11 (11732464_a_at) / RFU C10orf10 (11716521_a_at) / Fold change /veh C10orf10 (11716521_a_at) / RFU C5orf56 (11738089_at) / Fold change /veh C5orf56 (11738089_at) / RFU CYB561 (11721691_x_at) / Fold change /veh CYB561 (11721691_x_at) / RFU ANKRD19P (11752326_a_at) / Fold change /veh ANKRD19P (11752326_a_at) / RFU OR2T12 /// OR2T33 /// OR2T8 (11738714_s_at) / Fold change /veh OR2T12 /// OR2T33 /// OR2T8 (11738714_s_at) / RFU VCAN (11748164_a_at) / Fold change /veh VCAN (11748164_a_at) / RFU JSRP1 (11732532_at) / Fold change /veh JSRP1 (11732532_at) / RFU KRTAP10-11 (11738290_x_at) / Fold change /veh KRTAP10-11 (11738290_x_at) / RFU MYO3A (11730013_a_at) / Fold change /veh MYO3A (11730013_a_at) / RFU EBF3 (11725865_a_at) / Fold change /veh EBF3 (11725865_a_at) / RFU CAMK2N1 (11719241_x_at) / Fold change /veh CAMK2N1 (11719241_x_at) / RFU C5orf56 (11738088_a_at) / Fold change /veh C5orf56 (11738088_a_at) / RFU OLFML3 (11715873_a_at) / Fold change /veh OLFML3 (11715873_a_at) / RFU LOC100653217 /// NTM (11731650_a_at) / Fold change /veh LOC100653217 /// NTM (11731650_a_at) / RFU MAPK11 (11762145_a_at) / Fold change /veh MAPK11 (11762145_a_at) / RFU FIZ1 (11724087_x_at) / Fold change /veh FIZ1 (11724087_x_at) / RFU OASL (11726364_x_at) / Fold change /veh OASL (11726364_x_at) / RFU SOX15 (11748057_x_at) / Fold change /veh SOX15 (11748057_x_at) / RFU CD79A (11719716_a_at) / Fold change /veh CD79A (11719716_a_at) / RFU HIST1H1D (11736915_at) / Fold change /veh HIST1H1D (11736915_at) / RFU CASKIN2 (11723855_a_at) / Fold change /veh CASKIN2 (11723855_a_at) / RFU LOC730098 (11760151_x_at) / Fold change /veh LOC730098 (11760151_x_at) / RFU OR4N2 (11742367_at) / Fold change /veh OR4N2 (11742367_at) / RFU PRRT2 (11749266_a_at) / Fold change /veh PRRT2 (11749266_a_at) / RFU SNX32 (11753110_a_at) / Fold change /veh SNX32 (11753110_a_at) / RFU CDHR5 (11726645_a_at) / Fold change /veh CDHR5 (11726645_a_at) / RFU RCAN1 (11760418_a_at) / Fold change /veh RCAN1 (11760418_a_at) / RFU FAM167A (11723789_a_at) / Fold change /veh FAM167A (11723789_a_at) / RFU FAM26E (11764081_at) / Fold change /veh FAM26E (11764081_at) / RFU ISYNA1 (11749810_s_at) / Fold change /veh ISYNA1 (11749810_s_at) / RFU ACY1 (11761880_at) / Fold change /veh ACY1 (11761880_at) / RFU 11764098_at / Fold change /veh 11764098_at / RFU SAMD14 (11745864_x_at) / Fold change /veh SAMD14 (11745864_x_at) / RFU NPB (11741838_a_at) / Fold change /veh NPB (11741838_a_at) / RFU TMPRSS6 (11731388_a_at) / Fold change /veh TMPRSS6 (11731388_a_at) / RFU KRTAP10-2 (11738614_at) / Fold change /veh KRTAP10-2 (11738614_at) / RFU ARHGAP8 /// PRR5-ARHGAP8 (11727945_x_at) / Fold change /veh ARHGAP8 /// PRR5-ARHGAP8 (11727945_x_at) / RFU KRTAP5-7 /// NADSYN1 (11734609_at) / Fold change /veh KRTAP5-7 /// NADSYN1 (11734609_at) / RFU RASL12 (11751679_a_at) / Fold change /veh RASL12 (11751679_a_at) / RFU CDKN2B (11736163_a_at) / Fold change /veh CDKN2B (11736163_a_at) / RFU PRF1 (11729649_at) / Fold change /veh PRF1 (11729649_at) / RFU, ZNF638 /// ZNF638-IT1 / Fold change vs veh, ZNF638 /// ZNF638-IT1 / RFU, PANK3 / Fold change vs veh, PANK3 / RFU, SH3YL1 / Fold change vs veh, SH3YL1 / RFU, ZEB2 / Fold change vs veh, ZEB2 / RFU, NRIP1 / Fold change vs veh, NRIP1 / RFU, PTTG1IP / Fold change vs veh, PTTG1IP / RFU, CAPN2 / Fold change vs veh, CAPN2 / RFU, MED14 / Fold change vs veh, MED14 / RFU, SNORA58 / Fold change vs veh, SNORA58 / RFU, C1orf63 / Fold change vs veh, C1orf63 / RFU, LRRFIP1 / Fold change vs veh, LRRFIP1 / RFU, NDUFAF7 / Fold change vs veh, NDUFAF7 / RFU, SLC12A2 / Fold change vs veh, SLC12A2 / RFU, IBTK / Fold change vs veh, IBTK / RFU, ESF1 / Fold change vs veh, ESF1 / Fold change vs veh, TMEM50B / RFU, TAOK1 / Fold change vs veh, TAOK1 / RFU, ACBD3 / Fold change vs veh, ACBD3 / RFU, TMA16 / Fold change vs veh, TMA16 / RFU, RWDD3 / Fold change vs veh, RWDD3 / RFU, BCAT1 / Fold change vs veh, BCAT1 / RFU, EDEM3 / Fold change vs veh, EDEM3 / RFU, TMEM33 / Fold change vs veh, TMEM33 / RFU, WDR75 / Fold change vs veh, WDR75 / RFU, AHCTF1 / Fold change vs veh, AHCTF1 / RFU, TFRC / Fold change vs veh, TFRC / RFU, ZDHHC17 / Fold change vs veh, ZDHHC17 / RFU, NOM1 / Fold change vs veh, NOM1 / RFU, ARL8B / Fold change vs veh, ARL8B / RFU, ZBTB11 / Fold change vs veh, ZBTB11 / RFU, TAMM41 / Fold change vs veh, TAMM41 / RFU, KIAA1704 /// LOC100996395 / Fold change vs veh, KIAA1704 /// LOC100996395 / RFU, ING1 / Fold change vs veh, ING1 / RFU, TRMT61B / Fold change vs veh, TRMT61B / RFU, FUBP3 / Fold change vs veh, FUBP3 / RFU, TP53 / Fold change vs veh, TP53 / RFU, TNKS2 / Fold change vs veh, TNKS2 / RFU, ZFP14 / Fold change vs veh, ZFP14 / RFU, ACTR2 / Fold change vs veh, ACTR2 / RFU, PPP3R1 / Fold change vs veh, PPP3R1 / RFU, PIK3R1 / Fold change vs veh, PIK3R1 / RFU, HNRNPA1 / Fold change vs veh, HNRNPA1 / RFU, RNF170 / Fold change vs veh, RNF170 / RFU, ZNF28 / Fold change vs veh, ZNF28 / RFU, RNGTT / Fold change vs veh, RNGTT / RFU, OGT / Fold change vs veh, OGT / RFU, BRD1 / Fold change vs veh, BRD1 / RFU, MARS / Fold change vs veh, MARS / RFU, ZNF655 / Fold change vs veh, ZNF655 / RFU, FAHD1 / Fold change vs veh, FAHD1 / RFU, BDP1 / Fold change vs veh, BDP1 / RFU, LRRCC1 / Fold change vs veh, LRRCC1 / RFU, ARID1A / Fold change vs veh, ARID1A / RFU, ZNF146 / Fold change vs veh, ZNF146 / RFU, ZNF330 / Fold change vs veh, ZNF330 / RFU, GPN3 / Fold change vs veh, GPN3 / RFU, C9orf123 / Fold change vs veh, C9orf123 / RFU, N4BP2L2 / Fold change vs veh, N4BP2L2 / RFU, ARFIP1 / Fold change vs veh, ARFIP1 / RFU, FAM179B / Fold change vs veh, FAM179B / RFU, BCL10 / Fold change vs veh, BCL10 / RFU, UHRF1BP1L / Fold change vs veh, UHRF1BP1L / RFU, BET1 / Fold change vs veh, BET1 / RFU, CNOT2 / Fold change vs veh, CNOT2 / RFU, ZNF268 / Fold change vs veh, ZNF268 / Fold change vs veh, ZNF507 / RFU, DGCR2 / Fold change vs veh, DGCR2 / RFU, WDSUB1 / Fold change vs veh, WDSUB1 / Fold change vs veh, HSP90B1 /// MIR3652 / RFU, ADSS / Fold change vs veh, ADSS / RFU, GK / Fold change vs veh, GK / RFU, ZNF148 / Fold change vs veh, ZNF148 / RFU, TAF9 / Fold change vs veh, TAF9 / RFU, SLC1A5 / Fold change vs veh, SLC1A5 / RFU, SLMO2 / Fold change vs veh, SLMO2 / RFU, ABCC4 / Fold change vs veh, ABCC4 / RFU, LOC101060439 /// RAP1B / Fold change vs veh, LOC101060439 /// RAP1B / RFU, RFX7 / Fold change vs veh, RFX7 / RFU, GTPBP10 / Fold change vs veh, GTPBP10 / RFU, CNEP1R1 / Fold change vs veh, CNEP1R1 / RFU, BIVM-ERCC5 /// ERCC5 / Fold change vs veh, BIVM-ERCC5 /// ERCC5 / RFU, ILF3 / Fold change vs veh, ILF3 / RFU 11762660_at / Fold change /veh 11762660_at / RFU VCAN (11757783_s_at) / Fold change /veh VCAN (11757783_s_at) / RFU DDX43 (11728927_at) / Fold change /veh DDX43 (11728927_at) / RFU KRT8 (11758188_x_at) / Fold change /veh KRT8 (11758188_x_at) / RFU NKD1 (11759106_at) / Fold change /veh NKD1 (11759106_at) / RFU SRD5A1 (11742802_a_at) / Fold change /veh SRD5A1 (11742802_a_at) / RFU TPSAB1 /// TPSB2 (11721975_s_at) / Fold change /veh TPSAB1 /// TPSB2 (11721975_s_at) / RFU GSTM3 (11746129_a_at) / Fold change /veh GSTM3 (11746129_a_at) / RFU IL23R (11737362_x_at) / Fold change /veh IL23R (11737362_x_at) / RFU TMEM51 (11727254_a_at) / Fold change /veh TMEM51 (11727254_a_at) / RFU PIWIL2 (11732686_x_at) / Fold change /veh PIWIL2 (11732686_x_at) / RFU ORM1 (11744905_x_at) / Fold change /veh ORM1 (11744905_x_at) / RFU CCDC152 (11743942_at) / Fold change /veh CCDC152 (11743942_at) / RFU ECM1 (11717891_a_at) / Fold change /veh ECM1 (11717891_a_at) / RFU IL23R (11748794_a_at) / Fold change /veh IL23R (11748794_a_at) / RFU TNFAIP8L3 (11732012_x_at) / Fold change /veh TNFAIP8L3 (11732012_x_at) / RFU MBOAT4 (11741988_at) / Fold change /veh MBOAT4 (11741988_at) / RFU 11764193_at / Fold change /veh 11764193_at / RFU TMEM53 (11763286_at) / Fold change /veh TMEM53 (11763286_at) / RFU MAGEB2 (11727129_at) / Fold change /veh MAGEB2 (11727129_at) / RFU TMEM200A (11744735_a_at) / Fold change /veh TMEM200A (11744735_a_at) / RFU CCDC152 (11751479_a_at) / Fold change /veh CCDC152 (11751479_a_at) / RFU FAM211A (11726209_a_at) / Fold change /veh FAM211A (11726209_a_at) / RFU RGS16 (11746705_a_at) / Fold change /veh RGS16 (11746705_a_at) / RFU VCAN (11755009_s_at) / Fold change /veh VCAN (11755009_s_at) / RFU RHOB (11743442_s_at) / Fold change /veh RHOB (11743442_s_at) / RFU RGS16 (11720943_a_at) / Fold change /veh RGS16 (11720943_a_at) / RFU RGS16 (11720944_at) / Fold change /veh RGS16 (11720944_at) / RFU, VPS4B / Fold change vs veh, VPS4B / RFU, CREB1 / Fold change vs veh, CREB1 / RFU, DNAJC13 / Fold change vs veh, DNAJC13 / RFU, GNAQ / Fold change vs veh, GNAQ / RFU, CDK5R1 / Fold change vs veh, CDK5R1 / RFU, ZRANB3 / Fold change vs veh, ZRANB3 / RFU, CUL4A / Fold change vs veh, CUL4A / RFU, CCNY / Fold change vs veh, CCNY / RFU, UFL1 / Fold change vs veh, UFL1 / RFU, COG3 / Fold change vs veh, COG3 / RFU, DIAPH2 / Fold change vs veh, DIAPH2 / RFU, SKA2 / Fold change vs veh, SKA2 / RFU, AFF3 / Fold change vs veh, AFF3 / RFU, LMF1 / Fold change vs veh, LMF1 / RFU, IPO11 / Fold change vs veh, IPO11 / RFU, DFFB / Fold change vs veh, DFFB / RFU, FOXP1 / Fold change vs veh, FOXP1 / RFU, CARD8 / Fold change vs veh, CARD8 / RFU, STRN3 / Fold change vs veh, STRN3 / RFU, ADK / Fold change vs veh, ADK / RFU, RASSF2 / Fold change vs veh, RASSF2 / RFU, WIPF1 / Fold change vs veh, WIPF1 / RFU, LARP1B / Fold change vs veh, LARP1B / RFU, RASA1 / Fold change vs veh, RASA1 / RFU, RB1 / Fold change vs veh, RB1 / RFU, PPFIA1 / Fold change vs veh, PPFIA1 / RFU, MAT2A / Fold change vs veh, MAT2A / RFU, CCT5 / Fold change vs veh, CCT5 / RFU, WDR92 / Fold change vs veh, WDR92 / RFU, CUX1 / Fold change vs veh, CUX1 / RFU, TTC7A / Fold change vs veh, TTC7A / RFU, TMEM135 / Fold change vs veh, TMEM135 / RFU, DEPTOR / Fold change vs veh, DEPTOR / RFU, CPM / Fold change vs veh, CPM / RFU, DNAJB6 / Fold change vs veh, DNAJB6 / RFU, CACNA2D3 / Fold change vs veh, CACNA2D3 / RFU, DTX4 / Fold change vs veh, DTX4 / RFU, TFCP2 / Fold change vs veh, TFCP2 / RFU, GMCL1 /// GMCL1P1 / Fold change vs veh, GMCL1 /// GMCL1P1 / RFU, AEBP2 / Fold change vs veh, AEBP2 / RFU, SNHG1 /// SNORD22 /// SNORD25 /// SNORD26 /// SNORD27 /// SNORD28 /// SNORD29 /// SNORD31 / Fold change vs veh, SNHG1 /// SNORD22 /// SNORD25 /// SNORD26 /// SNORD27 /// SNORD28 /// SNORD29 /// SNORD31 / Fold change (Aza/veh), C12orf56 (ProbeSet 11735607_a_at) / Fold change (ACY-1035/veh), C12orf56 (ProbeSet 11735607_a_at) / Fold change (Aza/veh), FGFR1OP (ProbeSet 11751329_s_at) / Fold change (ACY-1035/veh), FGFR1OP (ProbeSet 11751329_s_at) / Fold change (Aza/veh), VPS36 (ProbeSet 11739960_a_at) / Fold change (ACY-1035/veh), VPS36 (ProbeSet 11739960_a_at) / RFU SYPL1 (11715823_x_at) / Fold change /veh SYPL1 (11715823_x_at) / RFU IGFBP7 (11715501_s_at) / Fold change /veh IGFBP7 (11715501_s_at) / RFU REEP3 (11722064_at) / Fold change /veh REEP3 (11722064_at) / RFU IGLL1 (11728026_x_at) / Fold change /veh IGLL1 (11728026_x_at): dose or concentration left out as unconfirmed
# Details: ProbeSet 11731093_s_at; LIST B
smiles,measurement,value
Nc1ncn([C@@H]2O[C@H](CO)[C@@H](O)[C@H]2O)c(=O)n1 [azacitidine],"RFU, BRD1",186.03 RFU
